Source: US9733237B2, “Methods for identifying candidates for the treatment of neurodegenerative diseases” (The Trustees of Columbia University in the City of New York, priority 2012, dated 2017)
Read-outs that look alike come from different tables or passages of the source.

Experiments:
[1] = test system: neurons of the pre-Botzinger complex; settings: cited from earlier work
[2] = test system: SOD1^G93A (ALS) and SOD1^WT mouse embryonic stem cell-derived motor neurons; assay: Two-color screen for agents preferentially toxic to ALS motor neurons (mixed WT/G93A ES-MN culture); format: cell-based; settings: for Preferential activity on ALS motor neurons: independent pair of WT and G93A lines
Protocol: GFP+ and RFP+ motor neurons were seeded in 96-well plates at equal proportions and imaged using a whole-well imaging platform (Plate Runner HD, Trophos, Marseilles, France). Live cells were scored with an automated image software (Metamorph, Molecular Devices, LLC, Sunnyvale, Calif.) using a neurite outgrowth criterion of five times the cell body diameter. Compounds from a small molecule library (Trophos) were loaded using automated liquid handling, and motor neuron survival was scored at 48 and 72 hours after exposure to stressors.
A survival ratio was calculated by dividing surviving % red cells with green cells for each well (lower left panel). Compounds eliciting ratios greater than 1.6 were considered hits (highlighted in lower left panel).
Multiple ES cell lines from SOD1^G93A mice that had been bred to a reporter strain expressing GFP under the motor neuron-specific Hb9 promoter were generated. ES cells from mice overexpressing wildtype human SOD1 (SOD1^WT) bred to mice expressing a new Hb9::RFP reporter (K. C. Kanning, unpublished) were used as controls. When differentiated in vitro using retinoic acid and an agonist of the sonic hedgehog pathway, these ES cells therefore generated green ALS motor neurons and red controls (FIG. 1A). By mixing these in equal numbers in culture, the response of ALS and control motor neurons to otherwise identical culture conditions could be quantified. This approach would reduce noise due to differences in individual culture wells, seeding density, position in incubator, etc., and that the ratio between numbers of WT and G93A cells would be a sensitive measure of selective vulnerability.
Using this assay miniaturized to a 96-well format, it was confirmed that after 3 days in either the presence or absence of a cocktail of neurotrophic factors, there was only a subtle decrease in ALS motor neuron survival relative to controls. An open-ended screen of the Tocriscreen Mini and Custom collection library of bioactive compounds was therefore performed to identify agents of known mechanism that could selectively induce death of ALS motor neurons. A total of 1,275 compounds were screened initially at a single concentration (10 μM), and those that were deemed too toxic were retested at 1 μM. […] Preferential activity on ALS motor neurons was subsequently confirmed for 4 of the hits using an independent pair of WT and G93A lines (FIG. 1B). The active compounds were: (a) capsaicin, an agonist of the […] receptor that is predominantly expressed on sensory neurons, (b) CPA (cyclopiazonic acid), which is an inhibitor of SERCA (sarco(endo)-plasmic reticulum Ca^++-ATPase) pumps, which sequester Ca^++ into the ER from the cytoplasm in an ATP-dependent manner (FIG. 2A), (c) DH97, a potent MT2 melatonin receptor antagonist, and (d) 2,3-DCPE, a compound that selectively induces apoptosis and downregulates Bcl-xL expression in human cancer vs. normal cells in vitro. The inventors focused on CPA because it induced the most robust change in the WT/G93A ratio (>3 in both combinations of ES lines) and because of the relevance of its mechanism of action to the alterations in Ca^++ handling that are characteristic of ALS motor neurons.
We first asked whether the actions of CPA were direct on motor neurons, or mediated by other cell types present in the mixed culture used for screening. […] Thus, degeneration induced by SERCA inhibition robustly differentiates between SOD1^G93A and SOD1^WT motor neurons. Neither thapsigargin nor CPA has gross effects on neuronal function. […] This provides further support for the notion that the selective effect of SERCA inhibitors on ALS motor neurons is a function of the disease.
A library of small molecule compounds (Tocriscreen Mini & Custom collection, 1275 compounds, or other collections of novel compounds) will be added at a concentration of 10 μM using automated liquid handling. The compounds will be added to the wells following the 20 hour imaging time point. […]

ES-MNs (G93A and WT) = assay: Fura-2 calcium imaging of Ca++ release from ER stores; format: cell-based, mouse; settings: 10 μM CPA, 20 minutes
Description: To explore potential mechanisms underlying the ALS-selective toxicity of CPA, calcium imaging in ES-MNs loaded with the calcium indicator dye Fura-2 was used. In preliminary experiments, rise and fall constants following a 5-second pulse of kainic acid were monitored, and no significant difference between the G93A and WT lines were found (FIG. 2B). […] It was hypothesized that CPA might selectively induce an imbalance in Ca^++ handling. To monitor release of Ca^++ from endoplasmic reticulum (ER) stores, ES-MNs of each genotype were incubated for 20 minutes with 10 μM CPA. An initial rapid increase of Fura-2 signal was followed by a slow recovery, as Ca^++ was sequestered by other routes, out of which mitochondria may be the main compensatory compartment.

SOD1^G93A mice = settings: in vivo; cited from earlier work

C/C=C(/C)C(=O)O[C@H]1C(C)=C2[C@H]([C@@H]1OC(=O)CCCCCCC)[C@@](C)(OC(C)=O)C[C@H](OC(=O)CCC)[C@@]1(O)[C@H]2OC(=O)[C@@]1(C)O [thapsigargin]
effect on respiratory rhythm [1]: do not affect respiratory rhythm
death of ALS motor neurons relative to controls ([2]; concentrations on the order of 1 nM): 2- to 4 fold

CC(=O)C1=C(O)[C@@H]2[C@H]3c4c[nH]c5cccc(c45)C[C@H]3C(C)(C)N2C1=O [CPA, cyclopiazonic acid]
effect on respiratory rhythm ([1]; applied to neurons of the pre-Botzinger complex): do not affect respiratory rhythm
G93A cells with greater initial Ca++ release (ES-MNs (G93A and WT)): about 40%
reduction in WT motor neurons numbers ([2]; 7.5 μM, after 48 hours): 40-50%
survival ratio (red WT cells/green mutant cells) ([2]; 7.5 μM, after 48 hours): 1.6-1.75
change in the WT/G93A ratio ([2]; both combinations of ES lines): > 3

COc1cc(CNC(=O)CCCC/C=C/C(C)C)ccc1O [capsaicin]
Preferential activity on ALS motor neurons [2]: confirmed

O=C(/C=C/c1ccccc1)NC(NC(=S)Nc1cccc2cccnc12)C(Cl)(Cl)Cl (centres unmarked) [Salubrinal]
protection in SOD1^G93A mice (SOD1^G93A mice): protective

CCCCC(=O)NCCc1c(Cc2ccccc2)[nH]c2ccccc12 [DH97]
Preferential activity on ALS motor neurons [2]: confirmed

OCCNCCCOc1cccc(Cl)c1Cl [2,3-DCPE]
Preferential activity on ALS motor neurons [2]: confirmed
